The values below come from US9718790B2, “Triazine derivative and pharmaceutical composition having an analgesic activity comprising the same” (SHIONOGI & CO., LTD., priority 2010, dated 2017).

The target of the experiment is human P2X3 receptor (Homo sapiens (Human), UniProt P56373). The experiment can be described thus: Evaluation of human P2X3 receptor inhibitory activity (Fluo-3 calcium fluorescence, FDSS 3000, ATP stimulation).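 Note: stimulus was 50 nM ATP with fluorescence followed for 3 min, and the response per well was peak post-ATP fluorescence divided by the reading at measurement start.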 To be noted: C6BU-1 cells stably expressing human P2X3 receptor. The class given is cell-based.
Sequence of human P2X3 receptor (P56373 whole entry): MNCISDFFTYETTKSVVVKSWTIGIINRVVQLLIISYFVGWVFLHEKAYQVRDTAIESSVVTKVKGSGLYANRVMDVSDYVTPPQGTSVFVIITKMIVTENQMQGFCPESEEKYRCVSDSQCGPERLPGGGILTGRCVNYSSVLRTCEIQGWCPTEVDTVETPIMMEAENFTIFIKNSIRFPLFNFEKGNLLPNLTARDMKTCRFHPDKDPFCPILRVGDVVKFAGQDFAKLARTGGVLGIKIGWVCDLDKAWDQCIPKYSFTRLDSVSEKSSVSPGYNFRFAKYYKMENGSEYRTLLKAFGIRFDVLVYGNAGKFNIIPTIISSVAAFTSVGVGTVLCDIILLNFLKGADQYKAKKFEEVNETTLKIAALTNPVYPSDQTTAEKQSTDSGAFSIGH

On to `Cc1ccc(Cn2c(Nc3ccc(OC(C)C)cc3)nc(=O)n(C(C)C)c2=O)cc1[N+](=O)[O-]` [Compound I-0218], for which the IC50 (Fluo-3 fluorescence, FDSS 3000) turned out to be 505 nM.

For `CC(C)Oc1ccc(Nc2nc(=O)n(C(C)C)c(=O)n2Cc2ccc(F)cc2)cc1C#N` [Compound I-0227], under “Fluo-3 fluorescence, FDSS 3000”, the IC50 was 910 nM. Consider `CC(C)n1c(=O)nc(Nc2ccc3oc(=O)[nH]c3c2)n(Cc2ccc(Cl)cc2)c1=O` [Compound I-0249], for which, where the note is “Fluo-3 fluorescence, FDSS 3000”, the IC50 amounted to 953 nM. On the same count and under the same terms, in the case of `CC(C)Cn1c(=O)oc2cc(Nc3nc(=O)n(C(C)C)c(=O)n3Cc3ccc(Cl)cc3)ccc21` [Compound I-0268] it was 861 nM. `CCOC(=O)CCCn1c(=O)[nH]/c(=N\c2ccc3oc(C)cc3c2)n(Cc2ccc(C)cc2)c1=O` [Compound I-0574]: the IC50 is 15 nM.

Turning to `CC(C)Oc1ccc(/N=c2\[nH]c(OCC(=O)O)nc(=O)n2Cc2ccc(Cl)cc2)cc1F` [Compound I-0581], the IC50 is 145 nM. Same read-out and setting: as for `CC(C)Oc1ccc(/N=c2\[nH]c(OCC(=O)NCCO)nc(=O)n2Cc2ccc(Cl)cc2)cc1F` [Compound I-0582], the figure is 365 nM.

With `CC(C)Oc1ccc(/N=c2\[nH]c(OCC(=O)NN(C)C)nc(=O)n2Cc2ccc(Cl)cc2)cc1F` [Compound I-0583], the IC50 came out at 38 nM. For the molecule `CC(C)Oc1ccc(/N=c2\[nH]c(OCC(=O)NC(CO)CO)nc(=O)n2Cc2ccc(Cl)cc2)cc1F` [Compound I-0584], the 50% inhibitory concentration (IC50) came to 248 nM.

Consider `CC(C)Oc1ccc(/N=c2\[nH]c(OCC(=O)N(C)CCO)nc(=O)n2Cc2ccc(Cl)cc2)cc1F` [Compound I-0586], for which the IC50 turned out to be 611 nM. Same read-out and setting: as for `CC(C)Oc1ccc(/N=c2\[nH]c(OCC(N)=O)nc(=O)n2Cc2ccc(Cl)cc2)cc1F` [Compound I-0587], the figure is 299 nM; as for `COC(=O)[C@H](C)Cn1c(=O)[nH]/c(=N\c2ccc(OC(C)C)c(C)c2)n(Cc2ccc(Cl)cc2)c1=O` [Compound I-0589], 6 nM; as for `CCOc1ccc(/N=c2\[nH]c(=O)n(C[C@@H](C)C(=O)OC)c(=O)n2Cc2ccc(Cl)cc2)cc1Cl` [Compound I-0590], 4 nM. With `COC(=O)[C@@H](C)Cn1c(=O)[nH]/c(=N\c2ccc(OC(C)C)c(Cl)c2)n(Cc2ccc(C)cc2)c1=O` [Compound I-0593], the 50% inhibitory concentration (IC50) came to 4 nM. On to `COC(=O)C(C)(C)Cn1c(=O)[nH]/c(=N\c2ccc3c(c2)cc(C)n3C)n(Cc2ccc(Cl)cc2)c1=O` [Compound I-0597], for which the half-inhibitory concentration (IC50) is 507 nM. With `CC(C)Oc1ccc(/N=c2\[nH]c(=O)n(C/C(N)=N/O)c(=O)n2Cc2ccc(Cl)cc2)cc1F` [Compound I-0599], the IC50 was 38 nM. Still for that read-out and setting: as for `CC(C)Oc1ccc(/N=c2\[nH]c(=O)n(Cc3noc(=O)[nH]3)c(=O)n2Cc2ccc(Cl)cc2)cc1F` [Compound I-0601], the figure is 31 nM. `CCOc1ccc(/N=c2\[nH]c(=O)n(C[C@H](C)C(=O)OC)c(=O)n2Cc2ccc(Cl)cc2)cc1F` [Compound I-0602]: the IC50 is 20 nM. The same measure, in the same setting: in the case of `CC(C)Oc1ccc(/N=c2\[nH]c(=O)n(CCC(=O)NO)c(=O)n2Cc2ccc(Cl)cc2)cc1F` [Compound I-0603] it was 12 nM; in that of `CC(C)Oc1ccc(/N=c2\[nH]c(=O)n([C@@H]3C[C@H]3C(=O)OC(C)(C)C)c(=O)n2Cc2ccc(Cl)cc2)cc1F` [Compound I-0604], 13 nM. Still for that read-out and setting: as for `CCOc1ccc(/N=c2\[nH]c(=O)n(C[C@H](C)C(=O)OC)c(=O)n2Cc2ccc(C)cc2)cc1F` [Compound I-0605], the figure is 25 nM; as for `COC(=O)[C@@H](C)Cn1c(=O)[nH]/c(=N\c2ccc(OC(C)C)cc2)n(Cc2ccc(C)cc2)c1=O` [Compound I-0606], 21 nM. On the same count and under the same terms, in the case of `COC(=O)NCCn1c(=O)[nH]/c(=N\c2ccc(OC(C)C)c(F)c2)n(Cc2ccc(Cl)cc2)c1=O` [Compound I-0607] it was 12 nM; in that of `COC(=O)NCCCn1c(=O)[nH]/c(=N\c2ccc(OC(C)C)c(F)c2)n(Cc2ccc(Cl)cc2)c1=O` [Compound I-0608], 6 nM; in that of `CCOc1ccc(/N=c2\[nH]c(=O)n(C[C@H](C)C(=O)O)c(=O)n2Cc2ccc(Cl)cc2)cc1F` [Compound I-0609], 31 nM. As to `CCOc1ccc(/N=c2\[nH]c(=O)n(C[C@H](C)C(=O)O)c(=O)n2Cc2ccc(C)cc2)cc1F` [Compound I-0610], the half-inhibitory concentration (IC50) turned out to be 35 nM. Same read-out and setting: in the case of `CC(C)Oc1ccc(/N=c2\[nH]c(=O)n([C@@H]3C[C@H]3C(=O)O)c(=O)n2Cc2ccc(Cl)cc2)cc1F` [Compound I-0612] it was 38 nM; in that of `CC(C)Oc1ccc(/N=c2\[nH]c(=O)n(CCCN/C(=N\C#N)Oc3ccccc3)c(=O)n2Cc2ccc(Cl)cc2)cc1F` [Compound I-0613], 11 nM. Still for that read-out and setting: as for `CC(C)Oc1ccc(/N=c2\[nH]c(=O)n(C[C@@H]3COC(C)(C)O3)c(=O)n2Cc2ccc(Cl)cc2)cc1Cl` [Compound I-0614], the figure is 10 nM. Same read-out and setting: as for `CNC(=NC#N)NCCCn1c(=O)[nH]/c(=N\c2ccc(OC(C)C)c(F)c2)n(Cc2ccc(Cl)cc2)c1=O` [Compound I-0615], the figure is 5 nM; as for `CC(C)Oc1ccc(/N=c2\[nH]c(=O)n(C[C@@H](O)CO)c(=O)n2Cc2ccc(Cl)cc2)cc1Cl` [Compound I-0616], 10 nM. Take `COC(=O)[C@@H](C)Cn1c(=O)[nH]/c(=N\c2ccc(OC(C)C)c(F)c2)n(Cc2ccc(F)cc2)c1=O` [Compound I-0617]: the IC50 is 67 nM. For the molecule `COC(=O)[C@@H](C)Cn1c(=O)[nH]/c(=N\c2ccc(OC(C)C)cc2)n(Cc2ccc(F)cc2)c1=O` [Compound I-0618], the IC50 turned out to be 121 nM. For `CCCOc1ccc(/N=c2\[nH]c(=O)n(C[C@H](C)C(=O)OC)c(=O)n2Cc2ccc(Cl)cc2)cc1` [Compound I-0619], the IC50 stood at 14 nM. On the same count and under the same terms, in the case of `CCCCc1ccc(/N=c2\[nH]c(=O)n(C[C@H](C)C(=O)OC)c(=O)n2Cc2ccc(Cl)cc2)cc1` [Compound I-0620] it was 44 nM; in that of `CCCc1ccc(/N=c2\[nH]c(=O)n(C[C@H](C)C(=O)OC)c(=O)n2Cc2ccc(Cl)cc2)cc1` [Compound I-0621], 58 nM; in that of `COC(=O)[C@@H](C)Cn1c(=O)[nH]/c(=N\c2cccc(C(F)(F)F)c2)n(Cc2ccc(Cl)cc2)c1=O` [Compound I-0622], 30 nM. Same read-out and setting: in the case of `CCCOc1ccc(/N=c2\[nH]c(=O)n(C[C@H](C)C(=O)O)c(=O)n2Cc2ccc(Cl)cc2)cc1` [Compound I-0623] it was 20 nM; in that of `CCCCc1ccc(/N=c2\[nH]c(=O)n(C[C@H](C)C(=O)O)c(=O)n2Cc2ccc(Cl)cc2)cc1` [Compound I-0624], 42 nM.

Regarding `COC(=O)[C@@H](C)Cn1c(=O)[nH]/c(=N\c2ccc(OC(C)C)c(C)c2)n(Cc2ccc(F)cc2)c1=O` [Compound I-0625], the IC50 amounted to 66 nM. Same read-out and setting: as for `COC(=O)[C@@H](C)Cn1c(=O)[nH]/c(=N\c2ccc(OC(C)C)c(Cl)c2)n(Cc2ccc(F)cc2)c1=O` [Compound I-0626], the figure is 22 nM; as for `CCCc1ccc(/N=c2\[nH]c(=O)n(C[C@H](C)C(=O)O)c(=O)n2Cc2ccc(Cl)cc2)cc1` [Compound I-0627], 91 nM.

As for `C[C@@H](Cn1c(=O)[nH]/c(=N\c2cccc(C(F)(F)F)c2)n(Cc2ccc(Cl)cc2)c1=O)C(=O)O` [Compound I-0628], the IC50 was determined as 61 nM.

Consider `Cc1cc(/N=c2\[nH]c(=O)n(C[C@H](C)C(=O)O)c(=O)n2Cc2ccc(F)cc2)ccc1OC(C)C` [Compound I-0629], for which the IC50 stood at 127 nM.

For orientation: IC50 means the point on the concentration scale where inhibition reaches its midpoint.
